For 19 molecules, EC50 results are on record in patent US11591341B2 (ALIGOS THERAPEUTICS, INC., priority 2019, dated 2023).

Molecules are shown by their SMILES. Where only a bound is given, the exact number is not on record here.

In general, EC50 refers to the concentration needed to bring the measured effect to its halfway point. Read a high EC50 as weaker potency.

In the assay the test system is HBV. The assay can be described thus: HBV-DNA Antiviral Assay Using HepG2.117 Cells (intracellular HBV DNA by qPCR). The class given is cell-based, hepatitis B virus (genotype D). The conditions noted are these: Hepatitis B virus, HepG2.117. As to the method: The following assay procedure describes the HBV antiviral assay, using HepG2.117 cells, which carry a stably integrated genotype D HBV genome under the control of a Tet-off promoter, and intracellular HBV DNA quantification as endpoint. Cell viability is assessed in parallel by measuring the intracellular ATP content using ATPlite (Perkin Elmer).
On day 0, HepG2.117 cells (which are maintained in routine cell culture with doxycycline present in the medium at a final concentration of 1 μg/mL) were seeded in 96-well plates (white with clear bottom) at a density of 2.0×10^4 cells/well (0.1 mL/well) in medium without doxycycline to induce pgRNA transcription and subsequent formation of HBV particles. The cells were incubated at 37° C. and 5% CO2.
On day 1, medium was removed from each well, the test articles were diluted in culture medium without doxcycyline and 100 μL was added to cell culture wells (9 concentrations, 4-fold dilution). For each plate, 6 untreated (merely DMSO) wells were included. The final concentration of DMSO in the culture medium was 2%. Each plate was prepared in duplicate (one for HBV DNA extraction, one for ATPlite measurement). The cells were incubated at 37° C. and 5% CO2 for 3 days.
On day 4, cell viability was assessed using ATPlite and cell lysates were prepared for HBV DNA extraction and subsequent quantification by qPCR.
Medium was removed from each well and 100 μL of 0.33% NP-40 in H2O was added to each well. Plates were sealed, incubated at 4° C. for 5 mins, vortexed extensively and centrifuged briefly. Next, 35 μL of lysate was added to 65 μL QuickExtract DNA Extraction Solution (Epicentre) in a PCR plate for each well. PCR plate was incubated at 65° C. for 6 mins, 98° C. for 2 mins and finally cooled to 4° C. HBV DNA was then quantified by qPCR with HBV-specific primers and probes as specified in Table 3 using the Bio-Rad SSOAdvanced Universal Probes Supermix on a CFX96 machine (Bio-Rad). The PCR cycle program consisted of 95° C. for 3 mins, followed by 40 cycles at 95° C. for 10 sec and 60° C. for 30 sec.
A DNA standard was prepared by dilution of an IDT gBlock corresponding to the amplicon with concentrations ranging from 10^2 to 10^8 copies/input (i.e. per 4 μL) and used to generate a standard curve by plotting Cq values vs. HBV DNA standard concentration. The quantity of HBV DNA in each sample was determined by interpolating from the standard curve.
Cell viability was calculated as follows: % Cell viability=(luminescence value of test sample)/(average luminescence value of 2% DMSO control)×100%. HBV DNA inhibition was calculated as follows: 100−(HBV DNA copy number of test sample)/(average HBV DNA copy number of 2% DMSO control)×100%. No normalization to entecavir was required due to the excellent dynamic window of this assay. The CC50, EC50 and EC90 values were determined by dose-response curves fitted by GraphPad Prism using “log (agonist) vs. response—Variable slope”.
In general terms: Real-time PCR tracks product formation cycle by cycle.
Turning to `C[C@@H](NC(=O)c1c2n(c(=O)n1-c1ccc(OCC(F)(F)F)cc1)CCN(C(=O)c1ccc(Br)c(Cl)c1)C2)c1ccc(OC(F)(F)F)cc1F` (racemic) [Example 292, 7-(4-bromo-3-chloro-benzoyl)-3-oxo-N-[rac-(1R)-1-[2-fluoro-4-(trifluoromethoxy)phenyl]ethyl]-2-[4-(2,2,2-trifluoroethoxy)phenyl]-6,8-dihydro-5H-imidazo[1,5-a]pyrazine-1-carboxamide], the EC50 lay in the range of 500 to 5000 nM.

For the molecule `COc1ccc(-n2c(C(=O)NCc3cccc(OC)c3C)c3n(c2=O)CCN(C(=O)c2ccc(Br)c(Cl)c2)C3)cc1` [Example 155, 7-(4-bromo-3-chloro-benzoyl)-N-[(3-methoxy-2-methyl-phenyl)methyl]-2-(4-methoxyphenyl)-3-oxo-6,8-dihydro-5H-imidazo[1,5-a]pyrazine-1-carboxamide], the EC50 lay in the range of 100 to 500 nM.

`O=C(NCc1cccc2[nH]cnc12)c1c2n(c(=O)n1-c1ccc(OC3CC3)cc1)CCN(C(=O)c1ccc(Br)c(Cl)c1)C2` [Example 367, N-(1H-benzoimidazol-4-ylmethyl)-7-(4-bromo-3-chloro-benzoyl)-2-[4-(cyclopropoxy)phenyl]-3-oxo-6,8-dihydro-5H-imidazo[1,5-a]pyrazine-1-carboxamide] displayed an EC50 of 100 to 500 nM.

As to `O=C(NCc1ccccc1-c1cccnn1)c1c2n(c(=O)n1-c1ccc(OC3CC3)cc1)CCN(C(=O)c1ccc(Br)c(Cl)c1)C2` [Example 387, 7-(4-bromo-3-chloro-benozyl)-2-[4-(cyclopropoxy)phenyl]-3-oxo-N-[(2-pyridazin-3-ylphenyl)methyl]-6,8-dihydro-5H-imidazo[1,5-a]pyrazine-1-carboxamide], the EC50 was under 100 nM.

`O=C(NCc1ccccc1-n1cncn1)c1c2n(c(=O)n1-c1ccc(OCC(F)(F)F)cc1)CCN(C(=O)c1ccc(Br)c(Cl)c1)C2` [Example 304, 7-(4-bromo-3-chloro-benzoyl)-3-oxo-N-[[2-(1,2,4-triazol-1-yl)phenyl]methyl]-2-[4-(2,2,2-trifluoroethoxy)phenyl]-6,8-dihydro-5H-imidazo[1,5-a]pyrazine-1-carboxamide] showed an EC50 of under 100 nM.

Take `COc1ccc(CNC(=O)c2c3n(c(=O)n2-c2ccc(OCC(F)(F)F)cc2)CCN(C(=O)c2ccc(Br)c(Cl)c2)C3)c(OC)c1` [Example 229, 7-(4-bromo-3-chloro-benozyl)-N-[(2,4-dimethoxyphenyl)methyl]-3-oxo-2-[4-(2,2,2-trifluoroethoxy)phenyl]-6,8-dihydro-5H-imidazo[1,5-a]pyrazine-1-carboxamide]: the half-maximal effective concentration (EC50) was under 100 nM.

With `COc1ccc(-n2c(C(=O)N[C@H](c3ccccc3)C(F)F)c3n(c2=O)CCN(C(=O)c2ccc(Br)c(Cl)c2)C3)cc1` (stereo in doubt) [Example 253, 7-(4-bromo-3-chloro-benzoyl)-2-(4-methoxyphenyl)-3-oxo-N-[rac-(1R)-2,2-difluoro-1-phenyl-ethyl]-6,8-dihydro-5H-imidazo[1,5-a]pyrazine-1-carboxamide], the EC50 lay within 100 to 500 nM.

In turn, `CCOC(=O)Cc1ccc(CNC(=O)c2c3n(c(=O)n2-c2ccc(OC)cc2)CCN(C(=O)c2ccc(Br)c(Cl)c2)C3)cc1` [Example 196, ethyl 2-[4-[[[7-(4-bromo-3-chloro-benzoyl)-2-(4-methoxyphenyl)-3-oxo-6,8-dihydro-5H-imidazo[1,5-a]pyrazine-1-carbonyl]amino]methyl]phenyl]acetate] came in with an EC50 of over 5000 nM.

Consider `COc1ccc(CN2C[C@H](O)Cn3c(c4n(c3=O)CCN(C(=O)c3ccc(Br)c(Cl)c3)C4)C2=O)cc1` (stereo in doubt) [Example 194, rac-(11S)-4-(4-bromo-3-chloro-benzoyl)-11-hydroxy-13-[(4-methoxyphenyl)methyl]-4,7,9,13-tetrazatricyclo[7.5.0.0^2,7]tetradec-1-ene-8,14-dione], for which the EC50 lay within 100 to 500 nM.

The molecule `C[C@@H](NC(=O)c1c2n(c(=O)n1-c1ccc(OC3CC3)cc1)CCN(C(=O)c1ccc(Br)c(Cl)c1)C2)c1ccc(OC(F)(F)F)cc1F` (stereo in doubt) [Example 290, 7-(4-bromo-3-chloro-benzoyl)-2-[4-(cyclopropoxy)phenyl]-3-oxo-N-[rac-(1R)-1-[2-fluoro-4-(trilfuoromethoxy)phenyl]ethyl]-6,8-dihydro-5H-imidazo[1,5-a]pyrazine-1-carboxamide] showed an EC50 of 500 to 5000 nM.

Take `O=C(c1ccc(Br)c(Cl)c1)N1CCn2c(c3n(c2=O)C[C@H](CO)CN(Cc2ccccc2)C3=O)C1` (stereo in doubt) [Example 146, rac-(11R)-13-benzyl-4-(4-bromo-3-chloro-benzoyl)-11-(hydroxymethyl)-4,7,9,13-tetrazatricyclo[7.5.0.0^2,7]tetradec-1-ene-8,14-dione]: the EC50 was 100 to 500 nM.

In turn, `C[C@H](NC(=O)c1c2n(c(=O)n1-c1ccc(OCC(F)(F)F)cc1)CCN(C(=O)c1ccc(Br)c(Cl)c1)C2)c1ccccc1` (stereo in doubt) [Example 127, 7-(4-bromo-3-chloro-benzoyl)-3-oxo-N-[rac-(1S)-1-phenylethyl]-2-[4-(2,2,2-trifluoroethoxy)phenyl]-6,8-dihydro-5H-imidazo[1,5-a]pyrazine-1-carboxamide] had an EC50 of 500 to 5000 nM.

`O=C(NCc1ccccc1)c1c2n(c(=O)n1-c1cccc(Cl)c1)CCN(C(=O)c1ccc(Br)c(Cl)c1)C2` [Example 29, N-benzyl-7-(4-bromo-3-chloro-benzoyl)-2-(3-chlorophenyl)-3-oxo-6,8-dihydro-5H-imidazo[1,5-a]pyrazine-1-carboxamide] had an EC50 of 500 to 5000 nM.

Molecule `C[C@H](Oc1ccc([C@H](C)NC(=O)c2c3n(c(=O)n2-c2ccc(OCC(F)(F)F)cc2)CCN(C(=O)c2ccc(Br)c(Cl)c2)C3)c(F)c1)C(N)=O` (stereo in doubt) [Example 362, 7-(4-bromo-3-chloro-benzoyl)-3-oxo-N-[rac-(1S)-1-[2-fluoro-4-[rac-(1S)-2-amino-1-methyl-2-oxo-ethoxy]phenyl]ethyl]-2-[4-(2,2,2-trifluoroethoxy)phenyl]-6,8-dihydro-5H-imidazo[1,5-a]pyrazine-1-carboxamide] came in with an EC50 of 100 to 500 nM.

With `COc1ccc(-n2c(C(=O)NCc3cccc4cccnc34)c3n(c2=O)CCN(C(=O)c2ccc(Br)c(Cl)c2)C3)cc1` [Example 166, 7-(4-bromo-3-chloro-benzoyl)-2-(4-methoxyphenyl)-3-oxo-N-(8-quinolylmethyl)-6,8-dihydro-5H-imidazo[1,5-a]pyrazine-1-carboxamide], the EC50 lay within 100 to 500 nM.

On to `COc1ccc(-n2c(C(=O)NC(C)C3CC3)c3n(c2=O)CCN(C(=O)c2ccc(Cl)c(Cl)c2)C3)cc1` (racemic) [Example 94, 7-(3,4-dichlorobenzoyl)-2-(4-methoxyphenyl)-3-oxo-N-[rac-(1S)-1-cyclopropylethyl]-6,8-dihydro-5H-imidazo[1,5-a]pyrazine-1-carboxamide], for which the EC50 is over 5000 nM.

The molecule `COc1ccc(-n2c(C(=O)NCc3ccc(OC(F)F)cc3)c3n(c2=O)CCN(C(=O)c2ccc(Br)c(Cl)c2)C3)cc1` [Example 148, 7-(4-bromo-3-chloro-benzoyl)-N-[[4-(difluoromethoxy)phenyl]methyl]-2-(4-methoxyphenyl)-3-oxo-6,8-dihydro-5H-imidazo[1,5-a]pyrazine-1-carboxamide] displayed an EC50 of 100 to 500 nM.

In turn, `COc1ccc(-n2c(C(=O)NCc3ccccc3)c3n(c2=O)CCN(C(=O)c2ccc(Cl)c(Cl)c2)C3)c(C)c1` [Example 87, N-benzyl-7-(3,4-dichlorobenzoyl)-2-(4-methoxy-2-methyl-phenyl)-3-oxo-6,8-dihydro-5H-imidazo[1,5-a]pyrazine-1-carboxamide] showed an EC50 of over 5000 nM.

`O=C(NCc1ccccc1-n1cc(F)cn1)c1c2n(c(=O)n1-c1ccc(OC3CC3)cc1)CCN(C(=O)c1ccc(Br)c(Cl)c1)C2` [Example 421, 7-(4-bromo-3-chloro-benzoyl)-2-[4-(cyclopropoxy)phenyl]-N-[[2-(4-fluoropyrazol-1-yl)phenyl]methyl]-3-oxo-6,8-dihydro-5H-imidazo[1,5-a]pyrazine-1-carboxamide] displayed a 50% effective concentration (EC50) of under 100 nM.
